Data on 26 compounds can be found in patent US20040044037A1, “Amidino-urea serotonin receptor ligands and compositions, their pharmaceutical uses, and methods for their snythesis” (priority 2003, published 2004).

In experiment [1] the target is T1, human 5-HT7B (h5-HT7b) receptors (Homo sapiens, UniProt P34969).
T1 construct: expressed in transfected cells
The experiment in a line: Competition radioligand binding, h5-HT7b. The following applies: [3H]5-CT; membranes of HEK 293 cells; read-out: Ki 5-HT7. An excerpt:
The compounds of the invention interact with 5-HT receptors and show selectivity for 5-HT receptors. The 5-HT receptor binding properties of the compounds are identified by competitive radioligand binding assays wherein membranes prepared from transfected cells expressing the 5-HT receptor subtype of interest. “Binding constants” refers herein to Ki values measured by inhibition of the binding of radiolabelled ligands that are selective for the 5-HT receptor type being studied. For 5-HT7 receptors, Ki values are determined by measuring the inhibition of 5-carboxamidotryptamine (5-CT) binding, wherein 5-HT7 receptors were incubated with the radiolabelled high affinity ligand, 5-carboxamidotryptamine ([^3H]5-CT), in the presence and absence of the compounds of the invention, at varying concentrations. The compounds of the invention have high binding affinity for serotonin receptors as measured by dissociation constant Ki. […] “Selectivity” for receptor type, in the context of this invention, refers to the ratio of binding constants for the two receptor types being compared. […] The compounds of the present invention preferably show selectivity for 5-HT7 receptors over other serotonin receptor subtypes of greater than about 100. The compounds of the present invention also preferably show selectivity for 5-HT7 receptors over other receptor types, such as dopamine D2, of greater than about 100.
Cells and Membrane Preparation: HEK 293 cells stably expressing human 5-HT7B (h5-HT7b) receptors were grown in Dulbecco's Modified Eagle's Medium (DMEM; Gibco) without sodium pyruvate and containing 4.5 g/L glucose, L-glutamine/penicillin-streptomycin (Gemini), 10% fetal bovine serum and 250 mg/l of the antibiotic, G418 (Geneticin) as previously described (Jasper, J. R., Kosaka, A., To, Z. P., Chang, D. J. and Eglen, R. M. (1997) Cloning, expression and pharmacology of a truncated splice variant of the human 5-ht7 receptor (h5-ht7b). Br. J. Pharmacol. 122(1):126-132.). Cell pellets were homogenized in approximately 50 mL of homogenization buffer (buffer A) containing: 50 mM Tris (pH 7.4), 2 mM EGTA, 0.32 M sucrose, 10 μM PMSF, 1 μg/mL leupeptin, 5 μg/mL Pepstatin A, and 5 μg/mL aprotinin using an UltraTurax homogenizer (Tekmar Company, Cincinnati, Ohio) at 80% maximum setting three times for 10 sec. Cell pellets were centrifuged at 4° C. at 1,500×g for 10 min in a Beckman GS-6R centrifuge. Pellets were resuspended in buffer A, homogenized and centrifuged as described above. Pooled supernatants were transferred to centrifuge bottles and centrifuged at 4° C. at 20,000×g for 30 min in a Beckman J2-HS centrifuge. Cell pellets were resuspended in buffer A and were centrifuged at 4° C. at 20,000×g for 30 min. Cell pellets were resuspended in buffer A and stored at −70° C. in aliquots of 2.5 mg/mL total membrane protein. Total membrane protein was assessed utilizing a BCA kit (Pierce; Rockford, Ill.). Membranes containing human 5-HT1a or 5HT2a receptors expressed in CHO K1 cells were prepared as described above.
Radioligand Binding Assays: For 5-HT7 saturation binding experiments, HEK-293 cell membranes expressing h5-HT7 receptors (5-10 μg membrane protein/well) were incubated in duplicate with [^3H]5-CT (approximately 0.2 nM) in binding assay buffer containing: 50 mM HEPES (pH 7.4), 0.5 mM EDTA, 10 mM MgCl2, 10 μM pargyline to inhibit monoamine oxidase activity, and 0.1% sodium ascorbate, in a final volume of 200 μL in 96-well polypropylene plates for 2 hours at 37° C. Nonspecific binding was determined by incubating membranes with 1 μM 5-HT. All radioligand binding assays were stopped by rapid filtration onto 96-well GF/C filter plates (Packard) soaked in 0.1% polyethylenimine. Filters were washed three times with ice-cold phosphate-buffered saline (PBS) wash buffer containing 50 mM NaPO4 (pH 7.4), 0.9% NaCl, 2 mM MgCl2 and 0.02% NaN3. The filters were then counted using liquid scintillation in a Packard Topcount scintillation counter. […]

In experiment [2] the target is T2, human D2S dopamine (hD2S-DA) receptors (Homo sapiens, UniProt P14416).
T2 construct: purchased Receptor Biology, Inc. (Beltsville, Md.); host or cells: A9 L cells
T2 sequence (P14416 1-414 isoform P14416-2): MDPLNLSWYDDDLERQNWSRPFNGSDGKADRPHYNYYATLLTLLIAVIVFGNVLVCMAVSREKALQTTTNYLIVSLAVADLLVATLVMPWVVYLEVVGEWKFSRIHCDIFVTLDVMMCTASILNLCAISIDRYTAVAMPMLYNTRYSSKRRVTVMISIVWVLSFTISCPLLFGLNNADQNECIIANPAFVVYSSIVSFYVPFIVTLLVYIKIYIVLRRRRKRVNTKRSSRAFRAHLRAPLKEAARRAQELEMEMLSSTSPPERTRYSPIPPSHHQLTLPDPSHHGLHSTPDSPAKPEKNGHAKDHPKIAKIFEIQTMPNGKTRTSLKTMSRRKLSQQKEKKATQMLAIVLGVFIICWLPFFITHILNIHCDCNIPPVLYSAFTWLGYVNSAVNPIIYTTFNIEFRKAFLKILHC
Kind of experiment: Competition radioligand binding, hD2S dopamine. The following applies: [3H]Spiperone; membranes of A9 L cells; read-out: Ki D2.

For experiment [3], the target named is T3, human 5-HT6 (h5-HT6) receptors (Homo sapiens, UniProt P50406).
T3 construct: purchased Receptor Biology, Inc. (Beltsville, Md.); host or cells: HEK-293 cells
T3 sequence (P50406 whole entry): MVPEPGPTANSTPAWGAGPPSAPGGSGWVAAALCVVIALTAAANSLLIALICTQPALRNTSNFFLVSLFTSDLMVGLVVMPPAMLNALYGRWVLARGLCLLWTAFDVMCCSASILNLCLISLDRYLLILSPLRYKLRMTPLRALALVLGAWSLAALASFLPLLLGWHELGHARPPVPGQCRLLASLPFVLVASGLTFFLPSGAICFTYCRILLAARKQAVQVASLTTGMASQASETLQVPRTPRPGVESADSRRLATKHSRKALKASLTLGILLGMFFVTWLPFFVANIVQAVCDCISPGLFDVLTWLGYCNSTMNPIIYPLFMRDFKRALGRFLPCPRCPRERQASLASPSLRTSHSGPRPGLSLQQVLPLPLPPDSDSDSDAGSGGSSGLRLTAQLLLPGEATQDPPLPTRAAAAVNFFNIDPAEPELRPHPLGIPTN
The experiment in a line: Competition radioligand binding, h5-HT6. To be noted: [3H]LSD; membranes of HEK-293 cells; read-out: Ki 5-HT6.

T1 sequence (P34969 1-432 limits assumed): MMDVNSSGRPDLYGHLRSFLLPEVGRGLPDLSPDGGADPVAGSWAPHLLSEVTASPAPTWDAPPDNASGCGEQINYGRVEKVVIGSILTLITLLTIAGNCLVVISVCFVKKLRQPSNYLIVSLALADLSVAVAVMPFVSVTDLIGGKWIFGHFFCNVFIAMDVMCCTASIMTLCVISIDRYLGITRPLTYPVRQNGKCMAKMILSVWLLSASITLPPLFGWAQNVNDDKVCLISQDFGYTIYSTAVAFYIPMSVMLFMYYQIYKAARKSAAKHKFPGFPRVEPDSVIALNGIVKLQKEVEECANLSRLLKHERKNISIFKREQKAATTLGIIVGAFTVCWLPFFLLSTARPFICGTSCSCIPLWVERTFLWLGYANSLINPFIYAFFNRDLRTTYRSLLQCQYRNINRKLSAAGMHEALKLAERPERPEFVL

As usually defined, the Ki is the equilibrium dissociation constant of an inhibitor or competing ligand from its target. Consider `N=C(NCc1cccc2ccccc12)NC(=O)NCC1CCNCC1` [Example 2, 4-({[({Imino[(1-naphthylmethyl)amino]methyl}amino)carbonyl]amino}methyl)piperidine], for which the Ki in experiment [1] is 46 nM; in experiment [2] it was more than 2500 nM; in experiment [3] it was 3200 nM.

With `COC(=O)NC(=N)NCc1cccc2ccccc12` [Example 4, Methylimino[(1-naphthylmethyl)amino]methylcarbamate], in experiment [1], the inhibition constant Ki turned out to be 820 nM.

Take `N=C(NC(=O)NCc1cccc(Cl)c1Cl)NC1CCCCC1O` (stereo not drawn) [Example 9, 1,2-Dichloro-3-{[({[[(2-hydroxycyclohexyl)amino](imino)methyl]amino}carbonyl)amino]methyl}benzene]: in experiment [1], the inhibitory constant (Ki) was 320 nM.

On to `Cc1ccccc1CNC(=O)NC(=N)NCCc1ccccn1` [Example 10, 2-(2-{[Imino([{(2-methylbenzyl)amino]carbonyl}amino)methyl]amino}ethyl)pyridine], for which the Ki is 250 nM in experiment [1] and more than 2500 nM in experiment [2].

Consider `N=C(NCc1cccc2ccccc12)NC(=O)NCCCn1ccnc1` [Example 11], for which the inhibitory constant (Ki) turned out to be 25 nM in experiment [1], 920 nM in experiment [2] and 910 nM in experiment [3].

For `N=C(NCc1cccc2ccccc12)NC(=O)N1CCCC(C(N)=O)C1` (stereo not drawn) [Example 12, 1-[({Imino[(1-naphthylmethyl)amino]methyl}amino)carbonyl]-3-piperidine carboxamide], in experiment [1], the inhibition constant Ki was found to be 180 nM.

On to `CN1CCCC1CCNC(=O)NC(=N)NCc1cccc2ccccc12` (stereo not drawn) [Example 13], for which the Ki in experiment [1] turned out to be 32 nM; in experiment [2], 1910 nM; in experiment [3], 3050 nM.

With `N=C(NCc1cccc2ccccc12)NC(=O)NC1CCCCC1O` (stereo not drawn) [Example 14, 1-({[({[(2-Hydroxycyclohexyl)amino]carbonyl}amino)(imino)methyl]amino}methyl)naphthalene], the Ki in experiment [1] is 11 nM; in experiment [2], 460 nM; in experiment [3] it was 1250 nM.

Take `N=C(NCc1cccc2ccccc12)NC(=O)NCCCO` [Example 16, 1-({[({[(3-Hydroxypropyl)amino}carbonyl}amino)(imino)methyl]amino}methyl)naphthalene]: the Ki in experiment [1] is 21 nM; in experiment [2], 500 nM; in experiment [3], 480 nM.

Turning to `N=C(NCc1cccc2ccccc12)NC(=O)NCc1cccc(CN)c1` [Example 17, 1-({[[({[3-(Aminomethyl)benzyl]amino}carbonyl)amino](imino)methyl]amino}methyl)naphthalene], the inhibition constant Ki in experiment [1] stood at 11 nM; in experiment [2], 480 nM; in experiment [3], 680 nM.

Turning to `N=C(NCc1cccc2ccccc12)NC(=O)N[C@@H](CO)c1ccccc1` [Example 19, 1-({[[({[(1R)-2-Hydroxy-1-phenylethyl]amino}carbonyl)amino](imino)methyl]amino}methyl)naphthalene], the inhibitory constant (Ki) in experiment [1] was 110 nM; in experiment [2] it was 200 nM; in experiment [3], 930 nM.

Consider `N=C(NCc1cccc2ccccc12)NC(=O)NCc1cccs1` [Example 20, 2-({[({Imino[(1-naphthylmethyl)amino]methyl}amino)carbonyl]amino}methyl)thiophene], for which the Ki in experiment [1] was determined as 16 nM; in experiment [2] it was 540 nM; in experiment [3], 1360 nM.

Turning to `CC(=O)NCCNC(=O)NC(=N)NCc1cccc2ccccc12` [Example 26, N-(2-{[({Imino[(1-naphthylmethyl)amino]methyl}amino)carbonyl]amino}ethyl)acetamide], the Ki was 10 nM in experiment [1], more than 2500 nM in experiment [2] and 1450 nM in experiment [3].

Take `N=C(NCc1cccc2ccccc12)NC(=O)Nc1cccc(C(N)=O)c1` [Example 27, 3-{[({Imino[(1-naphthylmethyl)amino]methyl}amino)carbonyl]amino}benzamide]: the Ki in experiment [1] was 18 nM; in experiment [2], more than 2500 nM; in experiment [3] it was 79 nM.

For the compound `COc1ccc(CNC(=O)NC(=N)NCc2cccc3ccccc23)cc1` [Example 28, 1-({[Imino({[(4-methoxybenzyl)amino]carbonyl}amino)methyl]amino}methyl)naphthalene], the values for the inhibition constant Ki in experiment [1], in experiment [2] and in experiment [3] were 43 nM, 500 nM and 3400 nM, respectively.

As for `CC(O)CNC(=O)NC(=N)NCc1cccc2ccccc12` (stereo not drawn) [Example 30, 1({[({[(2-Hydroxypropyl)amino]carbonyl}amino)(imino)methyl]amino}methyl) naphthalene], the Ki came to 13 nM in experiment [1], 1580 nM in experiment [2] and 1510 nM in experiment [3].

With `N=C(NCc1cccc2ccccc12)NC(=O)NCCc1ccc(O)cc1` [Example 31, 1-({[({[(4-Hydroxyphenethyl)amino]carbonyl}amino)(imino)methyl]amino}methyl) naphthalene], the inhibition constant Ki in experiment [1] was found to be 19 nM.

Consider `N=C(NCc1cccc2ccccc12)NC(=O)NCc1ccc(F)cc1` [Example 32, 1-({[({[(4-Fluorobenzyl)amino]carbonyl}amino)(imino)methyl]amino}methyl)naphthalene], for which the results for the inhibitory constant (Ki) in experiment [1], in experiment [2] and in experiment [3] were 24 nM, 780 nM and 1300 nM, respectively.

For the compound `N=C(NCc1cccc2ccccc12)NC(=O)NCCc1ccc(N)cc1` [Example 33, 1-({[({[(4-Amninophenethyl)amino]carbonyl}amino)(imino)methyl]amino}methyl) naphthalene], the results for the inhibition constant Ki in experiment [1], in experiment [2] and in experiment [3] were 48 nM, 900 nM and 1240 nM, respectively.

`N=C(NCc1cccc2ccccc12)NC(=O)NC1CC1` [Example 34, 1-({[{[(Cyclopropylamino)carbonyl]amino}(imino)methyl]amino}methyl)naphthalene]: the Ki in experiment [1] was 13 nM; in experiment [2], 1790 nM; in experiment [3], 7750 nM.

As for `N=C(NCc1cccc2ccccc12)NC(=O)N1CCNCC1` [Example 37, N-(1-Naphthylmethyl)-N′-(1-piperazinylcarbonyl)guanidine], in experiment [1], the inhibition constant Ki is 930 nM.

For `CNC(=O)/N=C(/NCc1cccc2ccccc12)NC(=O)NC` [Example 52, N-Methyl-N′-{(Z)-{[(methylamino)carbonyl]amino}[(1-naphthylmethyl)amino]methylidene}urea], the inhibition constant Ki in experiment [1] was 1010 nM.

On to `COc1ccccc1N1CCN(C(=O)NC(=N)N[C@H](C)c2ccc3ccccc3c2)CC1` [Example 82, N-{[4-(2-Methoxyphenyl)-1-piperazinyl]carbonyl}-N′-[(1R)-1-(2-naphthyl)ethyl]guanidine], for which, in experiment [1], the Ki was determined as 1080 nM.

For the compound `COc1ccccc1N1CCN(C(=O)NC(=N)N[C@H](C)c2cccc3ccccc23)CC1` [Example 83, N-{[4-(2-Methoxyphenyl)-1-piperazinyl]carbonyl}-N′-[(1R)-1-(1-naphthyl)ethyl]guanidine], the inhibition constant Ki in experiment [1] amounted to 750 nM.

`COc1ccc(CNC(=N)NC(C)=O)c2ccccc12` [Example 88, N-Acetyl-N′-[(4-methoxy-1-naphthyl)methyl]guanidine]: in experiment [1], the Ki is 1230 nM.

As for `O=C(Nc1nc2ccccc2[nH]1)Nc1cc(F)ccc1F` [Example 89], the Ki in experiment [1] amounted to 2700 nM.
